Assay results reported in patent publication US20120108666A1, “Treatment of Cell Proliferative Disorders” (priority 2006, published 2012).

Legend:
PHA-activated PBMCs = test: Inhibition of PHA-activated PBMCs (lymphocyte proliferation); assay type: cell-based, human; conditions: varying concentrations
Procedure: (§1) The jurkat E6.1 line is a Syk-deficient line; in fact, AV 61S after 7 days has no effect on this cell line (i.e., neither apoptosis nor inhibition, see […]). […] The viability study has been performed after 24 and 48 hours of incubation, each time for 3 evaluations; within 1, 3 and 6 hours.
FIGS. 1 and 2 show the effect of diluent on compounds of the invention.

HL-60 cells = test: XTT viability of HL-60 cells after 3 days, with and without piceatannol; assay type: cell-based, human; conditions: for viability of HL-60 cells, XTT method: 3 days
Source text: Secondly, the effect of compounds of the invention may be compared to the natural inhibitor of Syk, piceatannol.

[1] = system: jurkat E6.1 line (Syk-deficient); test: E6.1 Jurkat cell survival after seven days (FIG. 3); assay type: cell-based; conditions: after 7 days
Procedure: as §1

[2] = system: Syk-containing Jurkat cells; test: Jurkat cell survival after seven days (FIG. 4); assay type: cell-based; conditions: 50 μg/ml
Procedure: FIG. 4 illustrates the effect of AV 61S and AV 74S on Jurkat cell survival after a seven day period;
as §1

E6.1 Jurkat cells = test: Viability of E6.1 Jurkat cells after 24 and 48 hours (FIGS. 18, 19); assay type: cell-based; conditions: 24 and 48 hours of incubation
Procedure: FIG. 18 illustrates, in comparison with cyclosporin-treated Jurkat cells, the viability of E6.1 Jurkat cells treated with differing concentrations of AV 61S or AV 74S after 24 hours; and
FIG. 19 illustrates, in comparison with cyclosporin-treated Jurkat cells, the viability of E6.1 Jurkat cells treated with differing concentrations of AV 61S or AV 74S after 48 hours.
as §1

CC(CO)OCC(C)OCC(C)OCC(C)OCC(C)OCC(C)OCC(C)OC[C@H](Cc1ccccc1)NC(=O)CCc1ccc(O)cc1 (stereo partly drawn) [AV 61S]
inhibitory effect on PHA-activated PBMCs (PHA-activated PBMCs; DMSO carrier): inhibitory effect | inhibitory effect on PHA-activated PBMCs (PHA-activated PBMCs; PBS carrier): lesser inhibitory effect | viability of HL-60 cells, XTT method (HL-60 cells; 50 μg/ml with Pic 10 μM): 97 % of control | viability of HL-60 cells, XTT method (HL-60 cells; 50 μg/ml with Pic 30 μM): 83 % of control | viability of HL-60 cells, XTT method (HL-60 cells; 50 μg/ml, no piceatannol): 81 % of control | viability of HL-60 cells, XTT method (HL-60 cells; 100 μg/ml with Pic 10 μM): 59 % of control | viability of HL-60 cells, XTT method (HL-60 cells; 100 μg/ml with Pic 30 μM): 23 % of control | viability of HL-60 cells, XTT method (HL-60 cells; 100 μg/ml, no piceatannol): 36 % of control | effect on Syk-deficient jurkat E6.1 line (apoptosis, inhibition) [1]: no effect | killing of Syk-containing Jurkat cells [2]: ~100% | killing of E6.1 Jurkat cells (viability study) (E6.1 Jurkat cells): do not kill them

Oc1cc(O)cc(/C=C/c2ccc(O)c(O)c2)c1 [piceatannol, reference compound]
blocking of the inhibitory effect of AV 74S by piceatannol (HL-60 cells; AV 74S at 100 μg/ml, HL-60): at least partially blocks the inhibitory effect of AV 74S
